Literature values as cited in patent US20060167044A1, “Piperidine derivatives and their use as anti-inflammatory agents” (priority 2004, published 2006).

Tested on: UUO kidneys
Details: mouse, in vivo

C[C@@H]1CN(Cc2ccc(F)cc2)CCN1C(=O)COc1ccc(Cl)cc1NC(N)=O [BX 471]
CD8+/CCR5+ T cells (FACS analysis): comparable reduction
